According to patent US7064139B2, “Method for treating retroviral infections” (Uniroyal Chemical Company, Inc., priority 2001, dated 2006):
In brackets after ≈: the same amount, converted by molar mass.

tested on: Davis strain CMV; test: Reduction of CMV-induced cytopathicity in HEL cells; assay type: cell-based, human cytomegalovirus (HCMV); settings: HEL cells, virus-induced cytopathicity after seven days
Method: Confluent HEL cells grown in […] microtiter plates were inoculated with CMV at an input of 100 PFU (plaque forming units) per well. After a one to two hour incubation period, residual virus was removed and the infected cells were further incubated with MEM (Minimal Essential Medium) (supplemented with 2% inactivated Fetal Calf Serum (FCS), […], and 0.3% sodium bicarbonate) containing varying concentrations of the test compounds. Antiviral activity was expressed as EC50 (50% effective concentration), or test compound concentration required to reduce virus-induced cytopathicity after seven days by 50% compared to the untreated control.
In some cases, the compounds had considerable cytotoxicity against HEL cells, which made determination of the EC50 difficult. In these cases, an estimate of the percent protection at the compound concentration indicated in the previous columns is given.

Structure (SMILES) | Antiviral EC50 (ug/ml) Davis strain CMV
COc1ccc(CS(=O)(=O)c2cccc[n+]2[O-])cc1 [Compound 19] | 20.0 µg/mL
COc1ccc(C(c2ccccc2)S(=O)(=O)c2cccc[n+]2[O-])cc1OC (stereo not shown) [Compound 61] | 14.0 µg/mL
Cc1ccc(C(C)S(=O)(=O)c2c(C)ccc[n+]2[O-])c(C)c1 (racemic) [Compound 78] | 10.0 µg/mL
Cc1ccccc1C(C)S(=O)(=O)c1cccc[n+]1[O-] (stereo not shown) [Compound 104] | 34.5 µg/mL
Cc1ccc(CS(=O)(=O)c2c(C)ccc[n+]2[O-])c(C)c1 [Compound 83] | 12.0 µg/mL
COc1ccc(C[S+]([O-])c2cccc[n+]2[O-])cc1OC (stereo not shown) [Compound 98] | 10.0 µg/mL
CC(C)c1ccc(C(C)C)c(CS(=O)(=O)c2cccc[n+]2[O-])c1 [Compound 35] | 3.2 µg/mL
O=S(=O)(Cc1ccc(-c2ccccc2)cc1)c1cccc[n+]1[O-] [Compound 54] | 5.0 µg/mL

same assay, conditions: Human betaherpesvirus 5, 168 h; HEL cells, virus-induced cytopathicity after seven days; read-out: Antiviral EC50 (ug/ml) Davis strain CMV

Structure (SMILES) | EC50
CC(c1ccccc1)[S+]([O-])c1cccc[n+]1[O-] (stereo not shown) [Compound 102, 2-(1-Phenylethylsulfinyl)pyridine N-oxide] | 4.3 µg/mL (≈ 17.4 µM)
CCCCCCCC(c1cc(C)ccc1C)S(=O)(=O)c1cccc[n+]1[O-] (stereo not shown) [Compound 7, 2-[1-(2,5-Dimethylphenyl)octylsulfonyl]pyridine N-oxide] | 0.7 µg/mL (≈ 1.86 µM)
Cc1ccc(C)c(C(C)S(=O)(=O)c2ccc(C)c[n+]2[O-])c1 (stereo not shown) [Compound 110, 2-[1-(2,5-Dimethylphenyl)ethylsulfonyl]-5-methylpyridine N-oxide] | 50 µg/mL (≈ 164 µM)
CCC(c1cc(C)ccc1C)S(=O)(=O)c1c(C)ccc[n+]1[O-] (stereo not shown) [Compound 79, 2-[[1-(2,5-dimethylphenyl)propyl]sulfonyl]-3-methylpyridine-1-oxide] | 0.8 µg/mL (≈ 2.5 µM)

same assay, conditions: Human betaherpesvirus 5, HEL, 168 h, read-out: Antiviral EC50 (ug/ml) Davis strain CMV

Structure (SMILES) | EC50
Cc1ccc(C)c(CSc2ccccn2)c1 [Compound 148, 2-((2,5-dimethylphenyl)methylthio)pyridine] | 0.4 µg/mL (≈ 1.74 µM)

tested on: HIV-1 (IIIB); test: microbe, parasite or virus in culture; assay type: cell-based; settings: CEM cells, syncytium formation, day four post infection
Text: (§1) The cell type used to determine activity of the compounds of the invention herein, i.e., the test compounds, against HIV was human T-lymphoblast (CEM) cells obtained from the American Tissue Cell Culture Collection (Rockville, Md.). HIV-1 (IIIB) was originally obtained from the culture of persistently HIV-1 infected H9 cells and was provided by R. C. Gallo and M. Popovic (National Cancer Institute, National Institutes of Health, Bethesda, Md.). HIV-2 (ROD) was originally obtained from L. M. Montagnier (Pasteur Institute, Paris, France).
(§2) To determine the antiviral activity of the test compounds, CEM cells were suspended at a cell density of approximately 300,000 cells per ml of culture medium and infected with approximately 100 CCID50 (100 CCID50 being the 50% cell culture infective dose) of HIV-1 (IIIB) or HIV-2 (ROD)). Then 100 μl of the infected cell suspensions was added to 200 μl micro titer plate wells containing 100 μl of appropriate serial (5-fold) dilutions of the test compounds. The inhibitory effect of the test compounds on HIV-1 or HIV-2 syncytium formation in CEM cells was examined microscopically on day four post infection.
(§3) In these cases, the percent protection of the cells against virus-induced cytopathicity by the test compounds at the indicated compound concentration in the previous column is given.

Structure (SMILES) | EC50 (ug/ml) HIV-1
COc1ccc(CS(=O)(=O)c2cccc[n+]2[O-])cc1 [Compound 19] | ≧20 ug/ml
COc1ccc(C(c2ccccc2)S(=O)(=O)c2cccc[n+]2[O-])cc1OC (stereo not shown) [Compound 61] | >4 µg/mL
Cc1ccc(C(C)S(=O)(=O)c2c(C)ccc[n+]2[O-])c(C)c1 (racemic) [Compound 78] | 1.40 µg/mL (≈ 4.58 µM)
Cc1ccccc1C(C)S(=O)(=O)c1cccc[n+]1[O-] (stereo not shown) [Compound 104] | 40.00 µg/mL (≈ 144 µM)
Cc1ccc(CS(=O)(=O)c2c(C)ccc[n+]2[O-])c(C)c1 [Compound 83] | 6.00 µg/mL (≈ 20.6 µM)
COc1ccc(C[S+]([O-])c2cccc[n+]2[O-])cc1OC (stereo not shown) [Compound 98] | >.8 µg/mL
CC(C)c1ccc(C(C)C)c(CS(=O)(=O)c2cccc[n+]2[O-])c1 [Compound 35] | ≧4 ug/ml
O=S(=O)(Cc1ccc(-c2ccccc2)cc1)c1cccc[n+]1[O-] [Compound 54] | ≧4 ug/ml

same assay, conditions: Human immunodeficiency virus 1, IIIB, CCRF-CEM, read-out: EC50 (ug/ml) HIV-1

Structure (SMILES) | EC50
Cc1ccc(C)c(CSc2ccccn2)c1 [Compound 148, 2-((2,5-dimethylphenyl)methylthio)pyridine] | > 20 µg/mL

same assay, conditions: Human immunodeficiency virus 1, IIIB, CCRF-CEM; CEM cells, syncytium formation, day four post infection; read-out: EC50 (ug/ml) HIV-1

Structure (SMILES) | EC50
CC(c1ccccc1)[S+]([O-])c1cccc[n+]1[O-] (stereo not shown) [Compound 102, 2-(1-Phenylethylsulfinyl)pyridine N-oxide] | > 0.8 µg/mL
CCCCCCCC(c1cc(C)ccc1C)S(=O)(=O)c1cccc[n+]1[O-] (stereo not shown) [Compound 7, 2-[1-(2,5-Dimethylphenyl)octylsulfonyl]pyridine N-oxide] | > 0.8 µg/mL
Cc1ccc(C)c(C(C)S(=O)(=O)c2ccc(C)c[n+]2[O-])c1 (stereo not shown) [Compound 110, 2-[1-(2,5-Dimethylphenyl)ethylsulfonyl]-5-methylpyridine N-oxide] | 5.5 µg/mL (≈ 18 µM)
CCC(c1cc(C)ccc1C)S(=O)(=O)c1c(C)ccc[n+]1[O-] (stereo not shown) [Compound 79, 2-[[1-(2,5-dimethylphenyl)propyl]sulfonyl]-3-methylpyridine-1-oxide] | 1.4 µg/mL (≈ 4.38 µM)

same assay, conditions: protection of CEM cells against virus-induced cytopathicity at the concentration in the previous column

Structure (SMILES) | HIV-1 % Protection
COc1ccc(CS(=O)(=O)c2cccc[n+]2[O-])cc1 [Compound 19] | 37.5%
COc1ccc(C(c2ccccc2)S(=O)(=O)c2cccc[n+]2[O-])cc1OC (stereo not shown) [Compound 61] | 0.0%
CC(c1ccccc1)[S+]([O-])c1cccc[n+]1[O-] (stereo not shown) [Compound 102, 2-(1-Phenylethylsulfinyl)pyridine N-oxide] | 0.0%
CCCCCCCC(c1cc(C)ccc1C)S(=O)(=O)c1cccc[n+]1[O-] (stereo not shown) [Compound 7, 2-[1-(2,5-Dimethylphenyl)octylsulfonyl]pyridine N-oxide] | 0.0%
COc1ccc(C[S+]([O-])c2cccc[n+]2[O-])cc1OC (stereo not shown) [Compound 98] | 0.0%
CC(C)c1ccc(C(C)C)c(CS(=O)(=O)c2cccc[n+]2[O-])c1 [Compound 35] | 37.5%
O=S(=O)(Cc1ccc(-c2ccccc2)cc1)c1cccc[n+]1[O-] [Compound 54] | 37.5%

tested on: HIV-2 (ROD); test: Inhibition of HIV-2 syncytium formation in CEM cells; assay type: cell-based; settings: CEM cells, syncytium formation, day four post infection
Text: as §1, §2, §3

Structure (SMILES) | EC50 (ug/ml) HIV-2
COc1ccc(CS(=O)(=O)c2cccc[n+]2[O-])cc1 [Compound 19] | 14.0 µg/mL (≈ 50.1 µM)
COc1ccc(C(c2ccccc2)S(=O)(=O)c2cccc[n+]2[O-])cc1OC (stereo not shown) [Compound 61] | >4.0 µg/mL
Cc1ccc(C(C)S(=O)(=O)c2c(C)ccc[n+]2[O-])c(C)c1 (racemic) [Compound 78] | >100.0 µg/mL
Cc1ccccc1C(C)S(=O)(=O)c1cccc[n+]1[O-] (stereo not shown) [Compound 104] | 2.5 µg/mL (≈ 9.01 µM)
Cc1ccc(CS(=O)(=O)c2c(C)ccc[n+]2[O-])c(C)c1 [Compound 83] | ≧20 ug/ml
COc1ccc(C[S+]([O-])c2cccc[n+]2[O-])cc1OC (stereo not shown) [Compound 98] | >0.8 µg/mL
CC(C)c1ccc(C(C)C)c(CS(=O)(=O)c2cccc[n+]2[O-])c1 [Compound 35] | ≧4 ug/ml
O=S(=O)(Cc1ccc(-c2ccccc2)cc1)c1cccc[n+]1[O-] [Compound 54] | 4.0 µg/mL (≈ 12.3 µM)

same assay, conditions: Human immunodeficiency virus 2, CCRF-CEM, read-out: EC50 (ug/ml) HIV-2

Structure (SMILES) | EC50
Cc1ccc(C)c(CSc2ccccn2)c1 [Compound 148, 2-((2,5-dimethylphenyl)methylthio)pyridine] | > 20 µg/mL

same assay, conditions: Human immunodeficiency virus 2, CCRF-CEM; CEM cells, syncytium formation, day four post infection; read-out: EC50 (ug/ml) HIV-2

Structure (SMILES) | EC50
CC(c1ccccc1)[S+]([O-])c1cccc[n+]1[O-] (stereo not shown) [Compound 102, 2-(1-Phenylethylsulfinyl)pyridine N-oxide] | > 0.8 µg/mL
CCCCCCCC(c1cc(C)ccc1C)S(=O)(=O)c1cccc[n+]1[O-] (stereo not shown) [Compound 7, 2-[1-(2,5-Dimethylphenyl)octylsulfonyl]pyridine N-oxide] | > 0.8 µg/mL
Cc1ccc(C)c(C(C)S(=O)(=O)c2ccc(C)c[n+]2[O-])c1 (stereo not shown) [Compound 110, 2-[1-(2,5-Dimethylphenyl)ethylsulfonyl]-5-methylpyridine N-oxide] | > 100 µg/mL
CCC(c1cc(C)ccc1C)S(=O)(=O)c1c(C)ccc[n+]1[O-] (stereo not shown) [Compound 79, 2-[[1-(2,5-dimethylphenyl)propyl]sulfonyl]-3-methylpyridine-1-oxide] | ≥ 20 µg/mL

same assay, conditions: protection of CEM cells against virus-induced cytopathicity at the concentration in the previous column

Structure (SMILES) | HIV-2 % Protection
COc1ccc(C(c2ccccc2)S(=O)(=O)c2cccc[n+]2[O-])cc1OC (stereo not shown) [Compound 61] | 6.0%
CC(c1ccccc1)[S+]([O-])c1cccc[n+]1[O-] (stereo not shown) [Compound 102, 2-(1-Phenylethylsulfinyl)pyridine N-oxide] | 0.0%
CCCCCCCC(c1cc(C)ccc1C)S(=O)(=O)c1cccc[n+]1[O-] (stereo not shown) [Compound 7, 2-[1-(2,5-Dimethylphenyl)octylsulfonyl]pyridine N-oxide] | 0.0%
Cc1ccc(C(C)S(=O)(=O)c2c(C)ccc[n+]2[O-])c(C)c1 (racemic) [Compound 78] | 0.0%
Cc1ccc(CS(=O)(=O)c2c(C)ccc[n+]2[O-])c(C)c1 [Compound 83] | 37.5%
COc1ccc(C[S+]([O-])c2cccc[n+]2[O-])cc1OC (stereo not shown) [Compound 98] | 0.0%
CC(C)c1ccc(C(C)C)c(CS(=O)(=O)c2cccc[n+]2[O-])c1 [Compound 35] | 37.5%
Cc1ccc(C)c(C(C)S(=O)(=O)c2ccc(C)c[n+]2[O-])c1 (stereo not shown) [Compound 110, 2-[1-(2,5-Dimethylphenyl)ethylsulfonyl]-5-methylpyridine N-oxide] | 0.0%
CCC(c1cc(C)ccc1C)S(=O)(=O)c1c(C)ccc[n+]1[O-] (stereo not shown) [Compound 79, 2-[[1-(2,5-dimethylphenyl)propyl]sulfonyl]-3-methylpyridine-1-oxide] | 37.5%
